# Measurements from patent US10208000B2, “Eis inhibitors” (priority 2015, dated 2019).
# Test system: K204 Mtb
# Type: cell-based, Mycobacterium tuberculosis
row,SMILES,overcoming resistance to KAN in Mtb K204 (in words)
1,CC1=C(c2ccc(C)cc2)S(=O)(=O)N=C1NCCN1CCOCC1 [Compound 35e],did not overcome resistance to KAN
2,CCN1CCN(CCNC2=NS(=O)(=O)C(c3ccc(OC)cc3)=C2C)CC1 [Compound 37d],did not overcome resistance to KAN
3,CC1=C(c2ccc(F)cc2)S(=O)(=O)N=C1NCc1ccco1 [Compound 87b],did not overcome resistance to KAN
4,CC1=C(c2ccc(F)cc2)S(=O)(=O)N=C1NCc1ccccc1 [Compound 89b],did not overcome resistance to KAN
5,CC1=C(c2ccc(C)c(C)c2)S(=O)(=O)N=C1NCC(=O)NCc1ccc2c(c1)OCO2 [Compound 115i],did not overcome resistance to KAN
6,CCCNC1=NS(=O)(=O)C(c2ccc(F)cc2)=C1C [Compound 139b],did not overcome resistance to KAN
7,CCCNC1=NS(=O)(=O)C(c2ccc(C)cc2)=C1C [Compound 139e],did not overcome resistance to KAN
8,CCCNC1=NS(=O)(=O)C(c2ccc(C)c(C)c2)=C1C [Compound 139i],did not overcome resistance to KAN
